One may read the LD50 as the dose at which mortality reaches 50%.

“Also recorded” adds a separate entry of the source.

Data on one compound can be found in patent US5733904A, “Method for prevention and treatment of viral infectious diseases for viral suppression” (priority 1996, dated 1998).

In data set [1] the test system is Env (gp120) protein, HIV-1 infected MOLT-4 cells. Briefly: Suppressive action on expression of Env (gp120) protein on the surface of cells. Type of data set: cell-based. The note with it: FIG. 3; Env positive cells after 5 days. Here is the method: (Suppressive action on expression of Env (gp120) protein on the surface of cells.)
Cells obtained by culturing MOLT-4 (culture condition: 37° C., 5% CO2 /95% air, RPMI medium (GIBCO Corp.) containing 10% FBS) were adjusted to a preferable number of cells (1×10^5 cells/50 μl ). The cell suspension, 50 μl, (infected with MOLT-4 and HIV-1: M.O.I.=1.0) was put in a 96 hole microplate and cultured for 1 hour to infect the cells.
A solution of the compound shown below, 100 μl, was added in each well and cultured for 5 days. The cultured solution was transferred into a plastic tube (Eppendorf Corp.) and centrifuged to collect the cells. The cells were treated with mouse anti-Env gp120 monoclonal antibody (Replingen Inc.) as a primary antibody and FITC (Fluorescein Isothiocyanate) labelled goat anti-mouse IgG (Cappel Corp.) as a secondary antibody to fluoresce. The number of fluorescent cells was fluoroscopically calculated by counting fluorescent cells according to an indirect fluorescent antibody technique (Techniques in HIV Research, Ed. A. Aldoriny and B. D. Walker, Stokton Press, New York, 1990).
Env positive cells (%) was calculated by the following equation:
Env positive cells (%)=(FITC) positive cells/total cells)×100
Compounds: FAS, H-7 and KN-62.
Control: solution without compound was used.

Data set [2] has as its system HIV-1 p24 gag protein, HIV-1 infected MOLT-4 cells. In words: Suppressive action of HIV production (p24 gag protein in culture supernatant, ELISA). Format: cell-based. The note with it: FIG. 4; 5 days; hydrochloride. Here is the method: Suppressive action of HIV production (extracellular release from cells). Cells obtained by culturing MOLT-4 (culture condition: 37° C., 5% CO2 /95% air. RPMI medium (GIBCO Corp.) containing 10% FBS) were adjusted to a preferable number of cells (1×10^5 cells/50 μl). The cell suspension, 50 μl, (infection with MOLT-4 and HIV-1: M.O.I.=1.0) were put in a 96 hole microplate and cultured for 1 hour to infect the cells. A solution of the compounds shown below, 100 μl, was added in each well and cultured for 5 days. The cultured solution was transferred into a plastic tube (Eppendorf Corp.) and centrifuged. The amount of p24 gag protein in the cultured supernatant medium wa assayed by using an Abbott kit (ELISA: Dinabot Co.). FAS, H-7 and KN-62 were used as the compound, and a solution without the compound was used as a control.
(ELISA stands for enzyme-linked immunosorbent assay.)

The test system of data set [3] is HIV-1. In words: Comparison of suppressive activity of HIV proliferation with FAS and other anti-HIV drugs (syncytium formation). Type of data set: cell-based. The method, then: Comparison of suppressive activity of HIV proliferation with FAS and other anti-HIV drugs.
Experiments were conducted by the same method as in Example 3.
The medicaments used in this experiment were compounds of the present invention (FAS, and a compound of formula [I] where R^1 is hydroxy as in the above-mentioned Japanese Patent Unexamined Publication No. 61-152658), ddI (Sigma Corp.) and AZT (Sigma Corp.) which are used as medicaments for the treatment of AIDS, and dextran sulfate (Sigma Corp.).

Data set [4] deals with rabbit plasma. Briefly: Blood coagulation time (APTT, PT). Further details: species or system rabbit (male, Japanese white). The note with it: for PT / APTT: N=4, mean ± S.E.; for PT: control 7.3 ± 0.4; for APTT: control 16.9 ± 0.8. The method, then:
a) Blood coagulation time:
Rabbits (male, Japanese white, body weight 2-3 kg, Oriental Yeast Co.) were used. […] After adding the test compound to the resultant plasma, activated partial thromboplastin time (APTT) and prothrombin time (PT) were measured by using a coagulometer (Coagtec, Coagtec TE600, EMRA; KC-10A, Baxter).

Data set [5] can be described thus: Acute toxicity in mice. The settings on record: mouse, in vivo, iv, i. v., male. Further details: species or system mouse (Slc: ddy, 5 weeks). Here is the method: Acute toxicity of the compounds of the present invention were conducted on rats and mice, and low toxicity was confirmed.
Data set [6] concerns parainfluenza virus. In words: Inhibitory action for plaque formation of parainfluenza virus. The note with it: mean of two, control 51.5. Format: cell-based. Here is the method:
Experiments were performed according to a method described in Antiviral Chemistry and Chemotherapy, 5 (6), 366-371, 1994 and Experimental Virology, Ed. by NIH Japan alumni assoc., Maruzen Publ. 1982, p. 65-78 or p. 331-340.
Vero cells cultured in the medium (Dulbecco's modified MEM added with 10% FBS) were detached by trypsin (Sigma Corp.). The detached cells were suspended by 2×10^5 cells/ml in the same medium, and placed in the wells of a 48 hole plate. The plate was incubated at 37° C. under 5% CO2 for about one day to complete a full-sheet of the cells in all wells. After incubation, cultured supernatant was removed. A solution (50 μl) containing the compound diluted with 4-fold stepwise dilution by virus culture medium (MM: Dulbecco's modified MEM added with 2% FBS), was added thereto.
A viral solution, 50 μl, in which the number of virus (parainfluenza virus or Herpes simplex virus type I) was adjusted to about 50 pfu (plaque forming unit)/50 μl by MM, was added to each well. MM 400 μl containing 1% methylcellulose was added in each well to provide a compound-added test group. A control group was prepared by adding the viral culture medium without adding the test compound.
The groups were incubated at 37° C. under 5% CO2 for three days to form plaques and the number of plaques in each well was counted.
The test compounds were FAS, and the compound of formula [I] where R^1 is hydroxy. The final concentration of the compound in the solution was set to 100, 25, 6.3 and 1.6 μg/ml, respectively. Each test group included 2 wells and a mean of the plaque numbers was obtained.

The test system of data set [7] is C kinase. The settings on record: Cranial Nerve, 45 (9), 819-824, 1993; cited from earlier work.

Turning to `Cl.O=S(=O)(c1cccc2cnccc12)N1CCCNCC1` [FAS, hexahydro-1-(5-isoquinoline-sulfonyl)-1H-1,4-diazepine hydrochloride], in data set [1], the “inhibitory activity for Env expression” value is “strong inhibitory activity for Env expression”. In data set [2], the “p24 gag protein in the cultured supernatant medium / HIV-1 generation” value was “decreased p24 gag protein in the cultured supernatant medium and suppressed HIV-1 generation; also recorded: apparently stronger than that of H-7 (-.increment.-) and KN-62 (-.quadrature.-)”. Besides, the “inhibitory activity of syncytium formation of HIV-1” value in data set [3] was “higher sensitivity than dextran sulfate, ddI and AZT”. The IC50 in data set [3] (Human immunodeficiency virus 1, FIG. 5, approximate, read-out: 50% inhibitory concentration, syncytium formation) was about 800 nM. Moreover, the “effect on blood coagulation time (APTT, PT)” value in data set [4] is “no effect on blood coagulation time”. Besides, the PT in data set [4] (10 μM) was 7.1 ± 0.6 s; in data set [4] (30 μM), 7.1 ± 0.5 s; in data set [4] (100 μM), 7.6 ± 0.9 s. The values for the APTT in data set [4] (10 μM), in data set [4] (30 μM) and in data set [4] (100 μM) were 16.4 ± 0.8 s, 16.0 ± 0.8 s and 16.3 ± 0.8 s, respectively. Moreover, the LD50 in data set [5] worked out at 63.7 mg/kg. Further, the “Plaque No.” value turned out to be 50.5 in data set [6] (6.3 μg/ml), 36 in data set [6] (25 μg/ml) and 3.5 in data set [6] (100 μg/ml). Further, the “C kinase inhibition” value in data set [7] is recorded as “C kinase inhibition”.
